According to ChEMBL document CHEMBL1135147, “8-Methoxyquinolines as PDE4 inhibitors” (Bioorg Med Chem Lett, 2002):

What was measured:
[1] = biological target: Phosphodiesterase 3 (Homo sapiens) (UniProt Q14432+Q13370); test: Inhibition of human platelet Phosphodiesterase 3 at 20 uM
Phosphodiesterase 4 [2] = biological target: T1, Phosphodiesterase 4 (Homo sapiens, UniProt P27815+Q08499+Q07343+Q08493); test: Relative inhibition of PDE4 activity and rolipram binding; type: protein assay
Phosphodiesterase 4 [3] = biological target: T1, Phosphodiesterase 4; test: Inhibition of Phosphodiesterase 4 from human U937 cells; type: cell-based; conditions: u-937
Phosphodiesterase 4 [4] = biological target: Phosphodiesterase 4 (Rattus norvegicus, UniProt P14270+P14646+P14644+P54748); test: Inhibition of rolipram binding to PDE4 in rat brain; type: tissue-based

Compound | inhibition [1] [%] | Ratio (Phosphodiesterase 4 [2]) | IC50 (Phosphodiesterase 4 [3]) [nM] | IC50 (Phosphodiesterase 4 [4]) [nM]
COc1ccc(C(=O)Nc2c(Cl)cncc2Cl)c2ccc(C(C)O)nc12 (stereo not drawn) | 30 | 0.22 | 180 | 790
COc1ccc(C(=O)Nc2c(Cl)cncc2Cl)c2ccc(C(C)=O)nc12 | 27 | 0.29 | 440 | 1500
COc1ccc(C(=O)Nc2c(Cl)cncc2Cl)c2ccc(C(F)(F)F)nc12 | 15 | 0.66 | 51 | 77
CON=C(C)c1ccc2c(C(=O)Nc3c(Cl)cncc3Cl)ccc(OC)c2n1 | 22 | 1.5 | 210 | 140

Now from value to compound:

inhibition [1] [%] | Ratio (Phosphodiesterase 4 [2]) | IC50 (Phosphodiesterase 4 [3]) [nM] | IC50 (Phosphodiesterase 4 [4]) [nM] | Compound
10 |  |  |  | COc1ccc(C(=O)Nc2c(Cl)cncc2Cl)c2cccnc12
21 | 1.19 | 88 | 74 | COc1ccc(C(=O)Nc2c(Cl)cncc2Cl)c2ccc(C)nc12
35 | 0.57 | 43 | 75.3 | CCc1ccc2c(C(=O)Nc3c(Cl)cncc3Cl)ccc(OC)c2n1
38 | 16.3 | 700 | 43 | COc1ccc(C(=O)Nc2c(Cl)cncc2Cl)c2ccc(C#N)nc12
12 | 1.31 | 210 | 160 | CCc1cnc2c(OC)ccc(C(=O)Nc3c(Cl)cncc3Cl)c2c1
